Results on 15 molecules are retold here after PubChem BioAssay (NCI).

The structures appear in SMILES notation. Values joined by “and” are separate entries in the source; they are usually repeats but may differ in a detail not shown here. Equal entries are not always repeated.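 Cells were grown in 96-well plates and exposed to each compound for 48 hours at five concentrations; endpoints were interpolated linearly between bracketing concentrations, or set to the highest concentration if not reached. Here, GI50 denotes the concentration required for 50% inhibition of growth. TGI is the concentration that stops growth completely.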 Some results are limits rather than exact numbers.

Holding throughout (test): NCI tumour cell line growth inhibition, 48 h
The subject of assay [1] is OVCAR-3 ovarian.
The test system of assay [2] is KM12 colon.
The subject of assay [3] is HCT-15 colon.
For assay [4], the system named is UO-31 renal.
For assay [5], the system named is HCT-116 colon.
Assay [6] deals with TK-10 renal.
For assay [7], the system named is IGROV1 ovarian.
Assay [8] relates to HOP-62 NSCLC.
The test system of assay [9] is CCRF-CEM leukemia.

For the molecule `CN(C)CCNC(=O)c1cccc2c1nc(-c1ccc(F)cc1)c1ccccc12`, the TGI in [1] stood at 18.7 µM; in assay [2] it was 19.3 µM; in [3], 13.9 µM; in assay [4], 4.51 µM; in assay [5] it was 13.4 µM; in [6], 16.6 µM. Moreover, the TGI in assay [7] was determined as 16.8 µM; in [8] it was 12.9 µM; in assay [9] it was 11.9 µM.

As for `Cn1c(CBr)nc2c1C(=O)c1nc(CBr)[nH]c(=O)c1C2=O`, the TGI in assay [3], in assay [4], in [5], in [6], in assay [7] and in assay [9] was above 100 µM each time.

As for `Nc1ccc2n[se]nc2c1`, the TGI in assay [2], in [3], in assay [4], in assay [5], in assay [6] and in assay [7] was above 100 µM in each case. Besides, the TGI in assay [8] and in assay [9] was above 100 µM in each case.

`C/C(=N\O)c1ccc2ccc3ccccc3c2c1`: the TGI was 90.9 µM in assay [1]; 45 µM in assay [2]; above 100 µM in [3]; above 100 µM in [4]; above 100 µM in assay [5]; above 100 µM in assay [6]. In addition, the TGI in assay [7], in assay [8] and in assay [9] was above 100 µM in each case.

As for `CC1(C)CCC(Sc2ccccc2)O1` (stereo not drawn), the TGI in [1], in assay [2], in assay [3], in assay [4], in assay [5] and in [6] was above 100 µM throughout. Also, the TGI in assay [7], in [8] and in assay [9] was above 100 µM in each case.

As for `COC1=C(N)C(=O)c2nc(-c3nc(C(=O)O)c(C)c(-c4ccc(OC)c(OC)c4O)c3N)ccc2C1=O`, the GI50 in assay [1] was 0.0283 µM and 0.0169 µM; in assay [3], 0.00144 µM and 0.00832 µM and < 0.01 µM; in assay [4], below 0.01 µM; in assay [5], 0.0139 µM and 0.00357 µM; in assay [7] it was 0.00237 µM and 0.0223 µM and 0.0183 µM; in assay [9] it was 0.0206 µM and 0.00386 µM. For the same molecule, the TGI in [1] was 0.0395 µM; in assay [4], 0.02 µM and 0.0176 µM; in [6], 0.00795 µM and 0.0706 µM; in [7] it was 0.0196 µM and 0.125 µM and 0.0589 µM; in [8], 0.0407 µM and < 0.01 µM; in [9] it was 0.0398 µM and 0.0286 µM.

`Cc1ccc(C(=O)CC2(O)C(=O)Nc3c(C)cc(Cl)cc32)cc1` (stereo not drawn): the TGI in [1], in [2], in assay [3], in assay [4], in assay [6] and in assay [8] was above 100 µM each time. For the same molecule, the TGI in assay [9] is above 100 µM.

Regarding `CC(=O)C1CCN(c2ccccc2)C1` (stereo not drawn), the TGI in [1], in [2], in assay [4], in assay [5], in [6] and in assay [7] was above 100 µM throughout. For the same molecule, the TGI in assay [8] and in assay [9] was above 100 µM in each case.

As for `COc1cc[c]([Sn]([c]2ccc(OC)cc2)([c]2ccc(OC)cc2)[c]2ccc(OC)cc2)cc1`, the GI50 in assay [1] was 12.5 µM; in assay [3] it was above 100 µM; in assay [4], 14.1 µM; in assay [5], 8.92 µM; in assay [6] it was 17.9 µM; in assay [7], 25.9 µM. Besides, the GI50 is 81.8 µM in assay [8] and 20.7 µM in assay [9]. Also, the TGI in assay [1] was 33.7 µM; in assay [3], above 100 µM; in [4] it was 38 µM; in assay [6], 51.1 µM; in assay [7], above 100 µM; in assay [8] it was above 100 µM. For the same molecule, in assay [9], the TGI came to 69.8 µM.

Turning to `CC(C)(CN1C(=O)C(Cl)=C(Cl)C1=O)CN1C(=O)C(Cl)=C(Cl)C1=O`, the TGI in assay [1] stood at 23.2 µM; in [2], 57.4 µM; in assay [3], 48.8 µM; in [4], 47.2 µM; in assay [5] it was 27.9 µM; in [6], 22.2 µM. Further, the TGI in assay [7] is 40.4 µM; in [8] it was 45.6 µM.

Consider `Cc1nc(N)nc(N)c1CCCCc1ccc(N)cc1`, for which the TGI is 20.9 µM in assay [1]; 21.7 µM in assay [2]; 18.4 µM in assay [3]; above 100 µM in assay [4]; 13.4 µM in assay [5]; 28.8 µM in [6]. In addition, the TGI came out at 21.2 µM in assay [7], 18.2 µM in assay [8] and 22.5 µM in assay [9].

Regarding `CC(C)(C)c1cc(CCC(=O)Nc2ccc(Cl)cc2)[nH]c(=S)n1`, the TGI in assay [1], in [2], in [3], in assay [4], in assay [6] and in [7] was above 100 µM each time. The TGI in assay [8] and in assay [9] was above 100 µM throughout.

On to `COC(=O)C(=O)Cc1nc2ccccc2s1`, for which the TGI in assay [1], in assay [3], in [4], in [5], in [6] and in assay [7] was above 100 µM throughout. The TGI in [8] and in assay [9] was above 100 µM in each case.

Take `CN=c1ss/c(=N\C(=S)N(C)C)n1C`: the TGI in [2], in assay [3], in [4], in [5], in assay [6] and in assay [7] was above 100 µM in each case. Moreover, the TGI in [8] and in assay [9] was above 100 µM each time.

As for `COC(=O)CCSC(=O)Nc1ccc(N=Nc2ccccc2)cc1`, the TGI in [1] is 74.9 µM; in assay [2], above 100 µM; in [3], above 100 µM; in assay [4] it was above 100 µM; in assay [5], above 100 µM; in assay [6], above 100 µM. Further, the TGI in assay [7], in [8] and in assay [9] was above 100 µM each time.
